Experimental data from patent US8535904B2, “Method of enhancing skin barrier function” (Pola Chemical Industries Inc., priority 2006, dated 2013).

Key:
[1] = tested on: normal human epidermal keratinocytes (NHEK); test: Calcium ion permeation through cultured normal human epidermal keratinocyte layer (Transwell, Arsenazo III quantification); type: cell-based; conditions: 10^-1% test substance; calcium loaded concentration 5 mM; control = test substance concentration 0; FIG. 5/FIG. 6
Procedure: Frozen normal human epidermal keratinocytes (NHEK) (manufactured by Kurabo Industries Ltd.) were thawed and cultured in a 0.15 mM Ca-containing culture medium (Humedia-KG2; manufactured by Kurabo Industries Ltd.) at 37° C. in 50% carbon dioxide atmosphere. A Transwell (registered trademark) manufactured by Corning Incorporated (diameter 12 mm, polyethylene terephthalate, 0.4 μm pore) was placed on a Millicell (registered trademark) tissue culture plate (manufactured by Millipore), and the above-mentioned culture medium was added in amounts of 1.5 ml to the lower layer and 0.5 ml to the upper layer. […]
The recovered samples were quantified with quantification reagents {Ca-Arsenazo-III, Mg-Xylidyl blue I (both are manufactured by Fluka)}. […] The net flux (mass transfer per unit time and unit area) was calculated from the quantification results, and Ca and Mg ion permeability coefficients were calculated by the following formula.
a) 7.76 mg of Arsenazo III was dissolved in 100 μl of 1N NaOH, and the volume of the solution was adjusted to 50 ml with the apical solution for Ca prepared in Table 1 (Ca quantification solution). […]
c) In order to quantify Ca in a sample, the Ca quantification solution and the sample were each added to the plate in an amount of 50 μl/well to measure ODs (600). […]

[2] = tested on: normal human epidermal keratinocytes (NHEK); test: TER (transepithelial electrical resistance) of cultured normal human epidermal keratinocyte layer; type: cell-based; conditions: 10^-4 v/v % in culture medium; TER measured at addition and 1, 2, 3, 4 days later; FIG. 7
Procedure: Frozen normal human epidermal keratinocytes (NHEK) (manufactured by Kurabo Industries Ltd.) were thawed and cultured in a 0.15 mM Ca-containing culture medium (Humedia-KG2; manufactured by Kurabo Industries Ltd.) at 37° C. in […] atmosphere. A Transwell manufactured by Corning Incorporated (diameter 12 mm, polyethylene terephthalate, 0.4 μm pore) was placed on a Millicell tissue culture plate (manufactured by Millipore), and the above-mentioned culture medium was added in amounts of 0.5 ml to the upper layer and 1.5 ml to the lower layer. Then, the normal human epidermal keratinocytes (NHEK) were inoculated at 1×10^5/cm^2 and cultured for additional 72 hours. […] Thereafter, the medium was exchanged for a culture medium containing 10^−4 v/v % α,ε-bis(γ-N-lauroylglutamyl)lysine (Pellicer L-30 (registered trademark) (hereinafter, referred to as Pellicer); manufactured by Asahi Kasei Corporation), and TERs were measured. The culture was further continued, and one, two, three, and four days later, TERs were measured.
Frozen normal human epidermal keratinocytes (NHEK) (manufactured by Kurabo Industries Ltd.) were thawed and cultured in a 0.15 mM Ca-containing culture medium (Humedia-KG2; manufactured by Kurabo Industries Ltd.) at 37° C. in 50% carbon dioxide atmosphere. […] The culture was further continued, and one, two, three, and four days later, TERs were measured.

Compound	inhibition of the transference of a calcium ion (calcium ion permeation ratio vs control) [1]	TER (resistance value) compared with the control [2]
C[N+](C)(C)C[C@H](O)CC(=O)[O-] [L-carnitine, reference compound]	had ability to inhibit the transference of a calcium ion	–
CCCCCCCCCCCC(=O)N[C@@H](CCC(=O)NCCCC[C@H](NC(=O)CC[C@H](NC(=O)CCCCCCCCCCC)C(=O)O)C(=O)O)C(=O)O [Pellicer, α,ε-bis(γ-N-lauroylglutamyl)lysine]	–	increased resistance value compared with the control
N[C@@H](CCCCNC(=O)CC[C@H](N)C(=O)O)C(=O)O [ε,γ-glutamyl lysine]	had ability to inhibit the transference of the calcium ion	–
